For assay [1], the target named is T1, GHRH receptor (Homo sapiens, UniProt Q02643).
T1 sequence (Q02643 23-423): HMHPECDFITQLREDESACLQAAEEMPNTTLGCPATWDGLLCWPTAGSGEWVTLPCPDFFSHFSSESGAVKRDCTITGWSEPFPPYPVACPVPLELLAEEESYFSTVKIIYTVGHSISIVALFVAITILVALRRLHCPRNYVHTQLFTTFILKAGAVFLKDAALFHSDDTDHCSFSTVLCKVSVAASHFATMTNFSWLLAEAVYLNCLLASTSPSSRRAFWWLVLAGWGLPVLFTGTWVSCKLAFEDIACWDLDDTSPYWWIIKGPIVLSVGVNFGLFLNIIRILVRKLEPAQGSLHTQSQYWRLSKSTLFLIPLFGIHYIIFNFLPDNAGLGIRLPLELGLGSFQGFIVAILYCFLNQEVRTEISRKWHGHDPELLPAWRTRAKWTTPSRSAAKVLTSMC
As to the kind of experiment: GHRH receptor binding, competition with 125I-labeled [His1,Nle27]hGHRH(1-32)NH2, human pituitary membrane homogenates (Table 6). Further details: Normal human pituitaries were purchased from the National Hormone and Peptide Program; tissue National Hormone and Peptide Program (A.F. Parlow, Harbor-UCLA Medical Center, Torrance, Calif.); host or cells: normal human pituitary, membrane fraction. The text has this:
Normal human pituitaries were purchased from the National Hormone and Peptide Program (A.F. Parlow, Los Angeles, County Harbor-UCLA Medical Center, Torrance, Calif.).

For assay [2], the system named is superfused rat pituitary cells. As to the kind of experiment: GH release in superfused rat pituitary cell system (Table 4). Type of assay: cell-based. The following applies: 1 nM; for GH Response (ng/ml), column 1: replicate 1; for GH Response (ng/ml), column 2: replicate 2; for GH Response (ng/ml), column 3: replicate 3. The protocol:
Growth hormone releasing activity. Growth hormone releasing was assayed by using a superfused rat pituitary cell system as described in S. Vigh and A. V. Schally, Peptides 5, Suppl: 241-347, 1984. The new synthetic peptide analog of hGHRH P20356 and JI-38 (as control) were administered for 3 minutes (1 mL perfusate) at 1 nM concentration as shown below. Fractions of 1 ml are collected and the GH content in each was determined by ELISA.
Pituitary cells from 2 male rats were used for each channel of the superfusion system. The cells were exposed to 3-min pulses of the new GHRH agonists or to JI-38 as standard every 30 min. Outflowing samples of each channel (1 ml) were collected every 3 min, and GH levels were determined by ELISA.

The mark [3] stands for this setting: fraction 1 (P-20356)/21 (JI-38).
Where [4] appears, read: fraction 2 (P-20356)/22 (JI-38).
The mark [5] stands for this setting: fraction 3 (P-20356)/23 (JI-38).
Setting [6] is: fraction 4 (P-20356)/24 (JI-38).
The mark [7] stands for this setting: fraction 5 (P-20356)/25 (JI-38).

Non-standard residues stand in square brackets, D forms with d. Residues, ends and D or L forms follow the SMILES beside them. *: point of attachment. Desaminotyrosyl = O=C(CCc1ccc(O)cc1)*; NMeY = CN[C@@H](Cc1ccc(O)cc1)C(=O)O; Agmatine = N=C(N)NCCCCN*; Nle = CCCC[C@H](N)C(=O)O; Orn = NCCC[C@H](N)C(=O)O; Abu = CC[C@H](N)C(=O)O

As a reminder, the IC50 is the concentration that inhibits the measured activity by half. Higher therefore signals weaker potency in that assay.

The compound `CCCC[C@H](NC(=O)[C@@H](NC(=O)[C@H](CC(=O)O)NC(=O)[C@H](CCC(N)=O)NC(=O)[C@H](CC(C)C)NC(=O)[C@H](CC(C)C)NC(=O)[C@H](CCCN)NC(=O)[C@H](CCCNC(=N)N)NC(=O)[C@H](C)NC(=O)[C@H](CO)NC(=O)[C@H](CC(C)C)NC(=O)[C@H](CCC(N)=O)NC(=O)[C@H](CC)NC(=O)[C@H](CC(C)C)NC(=O)[C@@H](NC(=O)[C@H](CCCN)NC(=O)[C@H](CCCNC(=N)N)NC(=O)[C@H](Cc1ccc(O)cc1)NC(=O)[C@H](CO)NC(=O)[C@H](CCC(N)=O)NC(=O)[C@@H](NC(=O)[C@H](Cc1ccccc1)NC(=O)[C@@H](NC(=O)[C@H](C)NC(=O)[C@H](CC(=O)O)NC(=O)[C@H](C)NC(=O)CCc1ccc(O)cc1)[C@@H](C)CC)[C@@H](C)O)C(C)C)[C@@H](C)CC)C(=O)N[C@@H](CC(=O)O)C(=O)NCCCCNC(=N)N` [JI-38, [Dat^1, Gln^8, Orn^12,21, Abu^15, Nle^27, Asp^28, Agm^29]hGHRH(1-29)NH2, reference compound] (Desaminotyrosyl-ADAIFTQSYR[Orn]VL[Abu]QLSAR[Orn]LLQDI[Nle]D-Agmatine) gave an IC50 in assay [1] (125I-[His1,Nle27]hGHRH(1-32)NH2, human pituitary membranes, Table 6) of 1.95 nM. Moreover, the “Relative affinity (Binding potency) vs GHRH” value in assay [1] (GHRH(1-29) = 1, Table 6) stood at 3.03. Moreover, in assay [1] (JI-38 = 1, Table 6), the “Relative affinity (Binding potency) vs JI-38” value came out at 1. Further, the “GH Response (ng/ml), Average” value was determined as 49.27 ng/mL in assay [2] (setting [3]); 131.71 ng/mL in assay [2] (setting [4]); 194.68 ng/mL in assay [2] (setting [5]); 137.45 ng/mL in assay [2] (setting [6]); 96.70 ng/mL in assay [2] (setting [7]). Further, the “GH Response (ng/ml), column 1” value was 42.46 ng/mL in assay [2] (setting [3]); 143.58 ng/mL in assay [2] (setting [4]); 222.13 ng/mL in assay [2] (setting [5]); 142.96 ng/mL in assay [2] (setting [6]); 96.34 ng/mL in assay [2] (setting [7]). The “GH Response (ng/ml), column 2” value in assay [2] (setting [3]) amounted to 56.07 ng/mL; in assay [2] (setting [4]) it was 119.83 ng/mL; in assay [2] (setting [5]) it was 167.23 ng/mL; in assay [2] (setting [6]) it was 131.93 ng/mL; in assay [2] (setting [7]), 97.05 ng/mL.

Turning to `CCCC[C@H](NC(=O)[C@@H](NC(=O)[C@H](CC(=O)O)NC(=O)[C@H](CCC(N)=O)NC(=O)[C@H](CC(C)C)NC(=O)[C@H](CC(C)C)NC(=O)[C@H](CCCN)NC(=O)[C@H](CCCNC(=N)N)NC(=O)[C@H](C)NC(=O)[C@H](CO)NC(=O)[C@H](CC(C)C)NC(=O)[C@H](CCC(N)=O)NC(=O)[C@H](CC)NC(=O)[C@H](CC(C)C)NC(=O)[C@@H](NC(=O)[C@H](CCCN)NC(=O)[C@H](CCCNC(=N)N)NC(=O)[C@H](Cc1ccc(O)cc1)NC(=O)[C@H](CO)NC(=O)[C@H](CCC(N)=O)NC(=O)[C@@H](NC(=O)[C@H](Cc1ccccc1)NC(=O)[C@@H](NC(=O)[C@H](C)NC(=O)[C@H](CC(=O)O)NC(=O)[C@H](C)NC(=O)[C@H](Cc1ccc(O)cc1)NC)[C@@H](C)CC)[C@@H](C)O)C(C)C)[C@@H](C)CC)C(=O)N[C@@H](CC(=O)O)C(=O)NCCCCNC(=N)N` [Peptide P-20356, [N—Me-Tyr^1, Gln^8, Orn^12, Abu^15, Orn^21, Nle^27, Asp^28, Agm^29]hGHRH(1-29) NH2] (H-[NMeY]ADAIFTQSYR[Orn]VL[Abu]QLSAR[Orn]LLQDI[Nle]D-Agmatine), the “GH-releasing potency in vitro, times more potent than JI-38” value in assay [2] (superfused rat pituitary cells) is on record as “about 3”. Further, the “GH Response (ng/ml), Average” value in assay [2] (setting [3]) was determined as 52.45 ng/mL; in assay [2] (setting [4]) it was 337.48 ng/mL; in assay [2] (setting [5]) it was 556.46 ng/mL; in assay [2] (setting [6]), 334.99 ng/mL; in assay [2] (setting [7]), 197.91 ng/mL. The “GH Response (ng/ml), column 1” value in assay [2] (setting [3]) came to 49.98 ng/mL; in assay [2] (setting [4]) it was 310.58 ng/mL; in assay [2] (setting [5]) it was 491.01 ng/mL; in assay [2] (setting [6]), 399.95 ng/mL; in assay [2] (setting [7]), 200.64 ng/mL. In addition, the “GH Response (ng/ml), column 2” value in assay [2] (setting [3]) came out at 54.99 ng/mL; in assay [2] (setting [4]), 325.76 ng/mL; in assay [2] (setting [5]), 602.1 ng/mL; in assay [2] (setting [6]), 270.02 ng/mL; in assay [2] (setting [7]), 195.18 ng/mL. Further, the figures for the “GH Response (ng/ml), column 3” value in assay [2] (setting [3]), in assay [2] (setting [4]) and in assay [2] (setting [5]) were 52.37 ng/mL, 376.11 ng/mL and 576.26 ng/mL, respectively.
